Source: patent US8231888B2, “Isoxazolines for controlling invertebrate pests” (priority 2005, dated 2012)

Experiments:
Assay type in all cases: in vivo
[1] = system: diamondback moth (Plutella xylostella); assay: Test A: control of diamondback moth on radish plant, foliar spray; conditions: sprayed at 250 and/or 50 ppm, 6 days, 25° C.; no asterisk (not limited to 250 ppm)
From the text: For evaluating control of diamondback moth (Plutella xylostella) the test unit consisted of a small open container with a 12-14-day-old radish plant inside. This was pre-infested with about 50 neonate larvae that were dispensed into the test unit via corn cob grits using a bazooka inoculator. The larvae moved onto the test plant after being dispensed into the test unit.
(§1) Test compounds were formulated using a solution containing 10% acetone, 90% water and 300 ppm X-77™ Spreader Lo-Foam Formula non-ionic surfactant containing alkylarylpolyoxyethylene, free fatty acids, glycols and isopropanol (Loveland Industries, Inc. Greeley, Colo., USA). The formulated compounds were applied in 1 mL of liquid through a SUJ2 atomizer nozzle with 1/8 JJ custom body (Spraying Systems Co. Wheaton, Ill., USA) positioned 1.27 cm (0.5 inches) above the top of each test unit. All experimental compounds in these tests were sprayed at 250 and/or 50 ppm, and the test was replicated three times. After spraying of the formulated test compound, each test unit was allowed to dry for 1 h and then a black, screened cap was placed on top. The test units were held for 6 days in a growth chamber at 25° C. and 70% relative humidity. Plant feeding damage was then visually assessed based on foliage consumed and a pest mortality rating was also counted and calculated for each test unit.

[2] = system: fall armyworm (Spodoptera frugiperda); assay: Test B: control of fall armyworm on corn (maize) plant, foliar spray; conditions: sprayed at 250 and/or 50 ppm; no asterisk (not limited to 250 ppm)
Procedure: as §1
For evaluating control of fall armyworm (Spodoptera frugiperda) the test unit consisted of a small open container with a 4-5-day-old corn (maize) plant inside. This was pre-infested (using a core sampler) with 10-15 1-day-old larvae on a piece of insect diet. Test compounds were formulated and sprayed at 250 and/or 50 ppm as described for Test A and replicated three times. After spraying, the test units were maintained in a growth chamber and then the control efficacy was rated for each test unit as described for Test A.

[3] = system: western flower thrips (Frankliniella occidentalis); assay: Test D: control of western flower thrips on Soleil bean plant, contact and/or systemic; conditions: 6 days, 25° C.
Procedure: as §1
For evaluating control of the western flower thrips (Frankliniella occidentalis) through contact and/or systemic means, the test unit consisted of a small open container with a 5-7 day old Soleil Bean plant inside. Test compounds were formulated and sprayed at 250 and/or 50 ppm, and the test was replicated three times as described for Test A. After spraying, the test units were allowed to dry for 1 hour and then 22-27 adult thrips were added to each unit and then a black, screened cap was placed on top. The test units were held for 6 days at 25° C. and 45-55% relative humidity. A mortality rating was assessed along with a plant damage rating for each test unit.

[4] = asterisk: observed only at 250 ppm
[5] = sprayed at 250 and/or 50 ppm, no asterisk (not limited to 250 ppm)

| SMILES | control efficacy (20% or less feeding damage or 80% or more mortality) [1] | control efficacy (20% or less feeding damage or 80% or more mortality) [2] | control efficacy (20% or less feeding damage or 80% or more mortality) [3, 4] | control efficacy (20% or less feeding damage or 80% or more mortality) [3, 5] |
| --- | --- | --- | --- | --- |
| CC(NC(=O)c1ccc(C2=NOC(c3cc(Cl)cc(Cl)c3)(C(F)(F)F)C2)c2ccccc12)c1ccccc1 (mixture of isomers) [Compound 15] | very good to excellent levels of control efficacy | very good to excellent levels of control efficacy | very good to excellent levels of control efficacy |  |
| CCC(C)NC(=O)c1ccc(C2=NOC(c3cc(Cl)cc(Cl)c3)(C(F)(F)F)C2)c2ccccc12 (mixture of isomers) [Compound 32] | very good to excellent levels of control efficacy | very good to excellent levels of control efficacy |  | very good to excellent levels of control efficacy |
| O=C(NCC(F)(F)F)c1ccc(C2=NOC(c3cc(Cl)cc(Cl)c3)(C(F)(F)F)C2)c2ccccc12 (stereo not shown) [Compound 1] | very good to excellent levels of control efficacy | very good to excellent levels of control efficacy |  | very good to excellent levels of control efficacy |
| FC(F)(F)C1(c2cc(Cl)cc(Cl)c2)CC(c2ccc(C(=S)NCc3ccccn3)c3ccccc23)=NO1 (stereo not shown) [Compound 8] | very good to excellent levels of control efficacy | very good to excellent levels of control efficacy |  | very good to excellent levels of control efficacy |
| CCNC(=O)c1ccc(C2=NOC(c3cc(Cl)cc(Cl)c3)(C(F)(F)F)C2)c2ccccc12 (stereo not shown) [Compound 10] | very good to excellent levels of control efficacy | very good to excellent levels of control efficacy |  | very good to excellent levels of control efficacy |
| COC(=O)N(Cc1ccccn1)C(=O)c1ccc(C2=NOC(c3cc(Cl)cc(Cl)c3)(C(F)(F)F)C2)c2ccccc12 (stereo not shown) [Compound 11] | very good to excellent levels of control efficacy | very good to excellent levels of control efficacy |  | very good to excellent levels of control efficacy |
| CN(C)CCNC(=O)c1ccc(C2=NOC(c3cc(Cl)cc(Cl)c3)(C(F)(F)F)C2)c2ccccc12 (stereo not shown) [Compound 13] | very good to excellent levels of control efficacy | very good to excellent levels of control efficacy | very good to excellent levels of control efficacy |  |
| CN(C)CCNC(=O)c1ccc(C2=NOC(c3cc(Cl)cc(Cl)c3)(C(F)(F)F)C2)c2ccccc12.Cl (stereo not shown) [Compound 14] | very good to excellent levels of control efficacy | very good to excellent levels of control efficacy | very good to excellent levels of control efficacy |  |
| CC(C)NC(=O)c1ccc(C2=NOC(c3cc(Cl)cc(Cl)c3)(C(F)(F)F)C2)c2ccccc12 (stereo not shown) [Compound 16] | very good to excellent levels of control efficacy | very good to excellent levels of control efficacy |  | very good to excellent levels of control efficacy |
| C=CCNC(=O)c1ccc(C2=NOC(c3cc(Cl)cc(Cl)c3)(C(F)(F)F)C2)c2ccccc12 (stereo not shown) [Compound 18] | very good to excellent levels of control efficacy | very good to excellent levels of control efficacy |  | very good to excellent levels of control efficacy |
| C#CCNC(=O)c1ccc(C2=NOC(c3cc(Cl)cc(Cl)c3)(C(F)(F)F)C2)c2ccccc12 (stereo not shown) [Compound 19] | very good to excellent levels of control efficacy | very good to excellent levels of control efficacy |  | very good to excellent levels of control efficacy |
| O=C(NCC1CC1)c1ccc(C2=NOC(c3cc(Cl)cc(Cl)c3)(C(F)(F)F)C2)c2ccccc12 (stereo not shown) [Compound 20] | very good to excellent levels of control efficacy | very good to excellent levels of control efficacy | very good to excellent levels of control efficacy |  |
| CC(NC(=O)c1ccc(C2=NOC(c3cc(Cl)cc(Cl)c3)(C(F)(F)F)C2)c2ccccc12)c1ccccn1 (stereo not shown) [Compound 21] | very good to excellent levels of control efficacy | very good to excellent levels of control efficacy |  | very good to excellent levels of control efficacy |
| O=C(NCc1ccccn1)c1ccc(C2=NOC(c3cc(Br)cc(Br)c3)(C(F)(F)F)C2)c2ccccc12 (stereo not shown) [Compound 26] | very good to excellent levels of control efficacy | very good to excellent levels of control efficacy |  | very good to excellent levels of control efficacy |
| CCC(C)NC(=O)c1ccc(C2=NOC(c3cc(Cl)cc(Cl)c3)(C(F)(F)F)C2)c2ccccc12 (stereo not shown) [Compound 33] |  |  | very good to excellent levels of control efficacy |  |
| CC(NC(=O)c1ccc(C2=NOC(c3cc(Cl)cc(Cl)c3)(C(F)(F)F)C2)c2ccccc12)C(C)(C)C (stereo not shown) [Compound 34] | very good to excellent levels of control efficacy | very good to excellent levels of control efficacy | very good to excellent levels of control efficacy |  |
| O=C(NCCO)c1ccc(C2=NOC(c3cc(Cl)cc(Cl)c3)(C(F)(F)F)C2)c2ccccc12 (stereo not shown) [Compound 35] | very good to excellent levels of control efficacy | very good to excellent levels of control efficacy |  | very good to excellent levels of control efficacy |
| O=C(N[C@H]1CCc2ccccc21)c1ccc(C2=NOC(c3cc(Cl)cc(Cl)c3)(C(F)(F)F)C2)c2ccccc12 (stereo partly shown) [Compound 39] | very good to excellent levels of control efficacy | very good to excellent levels of control efficacy | very good to excellent levels of control efficacy |  |
| COCCNC(=O)c1ccc(C2=NOC(c3cc(Cl)cc(Cl)c3)(C(F)(F)F)C2)c2ccccc12 (stereo not shown) [Compound 41] | very good to excellent levels of control efficacy | very good to excellent levels of control efficacy |  | very good to excellent levels of control efficacy |
| CC(=O)NNC(=O)c1ccc(C2=NOC(c3cc(Cl)cc(Cl)c3)(C(F)(F)F)C2)c2ccccc12 (stereo not shown) [Compound 45] | very good to excellent levels of control efficacy |  | very good to excellent levels of control efficacy |  |
| NCCNC(=O)c1ccc(C2=NOC(c3cc(Cl)cc(Cl)c3)(C(F)(F)F)C2)c2ccccc12 (stereo not shown) [Compound 47] | very good to excellent levels of control efficacy |  | very good to excellent levels of control efficacy |  |
| COC(=O)[C@H](C)NC(=O)c1ccc(C2=NOC(c3cc(Cl)cc(Cl)c3)(C(F)(F)F)C2)c2ccccc12 (stereo partly shown) [Compound 48] | very good to excellent levels of control efficacy |  | very good to excellent levels of control efficacy |  |
